# Read-outs that look alike come from different tables or passages of the source.
# Columns and labels:
# C. trachomatis serovar D = C. trachomatis serovar D in cell culture; cited from earlier work
# Method: The tested compounds were applied to C. trachomatis-infected cells at an early stage of the chlamydial developmental cycle (Figure 1a), before the bacteria started replicating. During the early treatment with MRY D2, the majority of muraymycin derivatives and cCPZ had MICs between 16 µg/mL for cCPZ and 128 µg/mL for MRY D2 (Figure 1d). These MICs were relatively high compared with the MICs of the first-choice antibiotics against uncomplicated chlamydial genital infections, DOX and AZI, which have MICs of <1 µg/mL against C. trachomatis serovar D in cell culture. All der ...
# C. trachomatis D/UW-3/CX [1] = assay: Anti-chlamydial activity (MIC) in C. trachomatis-infected HEp-2 cells, fluorescence microscopy; type: cell-based; conditions: for Effect on C. trachomatis infection (phenotype): added at 2 hpi, read at 30 hpi, HEp-2 cells; for MIC: C. trachomatis D/UW-3/CX-infected HEp-2 cells, compound added at 2 hpi, fluorescence microscopy at 30 hpi, MIC = lowest concentration with >90% reduction in inclusions or inducing enlarged aberrant cells, three experiments
# Method: First, we tested the lead compound MRY D2 (Figure 1a) and seven muraymycin derivatives (MRH; described in [47, 48]) on C. trachomatis in cell culture experiments. To this end, C. trachomatis D/UW-3/CX-infected HEp-2 cells were treated with the compounds at 2 h post infection (hpi; Figure 1b), which represents an early stage of the chlamydial developmental cycle before bacterial replication. Inhibitors were applied over a range of concentrations that were not detrimental to HEp-2 host cells in resazurin-based viability assays (Table S1), and the effects were visualized by fluorescence microscopy (Figure 1c and Figure S2) at 30 hpi. The minimal inhibitory concentration (MIC) for Chlamydia was defined as either the lowest concentration leading to a >90% reduction in inclusions or, for aberrance-inducing compounds, the concentration leading to abnormal chlamydial cell phenotypes, i.e., enlarged cells after treatment with PEN G [39].
# (§1) The effect of the compounds on active C. trachomatis infections was analyzed by fluorescence microscopy. […] The cells were washed once with medium and infected with freshly prepared C. trachomatis D/UW-3/CX EB-containing suspension. After 2 h incubation, the EB suspension was aspirated, and the cells were washed twice with medium. The effect of compounds on an infection was determined by application of the compound at 2 hpi or 12 hpi in a serial dilution from 1 µg/mL to 64 µg/mL (MRH-25, -76, -92, cCPZ) or from 1 µg/mL to 128 µg/mL (MRY D2, MRH-22, -23, -38, and -82). Negative controls were conducted with DMSO as a vehicle control. For Chlamydia, the MIC is defined as a >90% reduction in inclusions. The MIC of compounds inducing the formation of enlarged, aberrant bodies is the lowest concentration that induces the abnormal inclusion morphology.
# (§2) Infected HEp-2 cells were fixed and permeabilized with 100% (v/v) ice-cold methanol at 30 hpi and washed once with 1 × phosphate-buffered saline (PBS, 4 mM KH2PO4 pH 7.4, 16 mM Na2HPO4, 115 mM NaCl). The Pathfinder Chlamydia Culture Confirmation System (Bio-Rad Laboratories, Hercules, CA) was used to stain the C. trachomatis lipopolysaccharide and host cell cytoplasm by incubation for 30 min at 37 °C. Genomic DNA was stained with 10 µg/mL DAPI (Thermo Fisher Scientific) for 1 min and then washed twice with PBS for 10 min at 4 °C. Fluorescence microscopy was performed with an Axio observer Z.1 using the Zen2 software (Carl Zeiss, Oberkochen, Germany).
# [2] = tested on: Wolbachia strain B of A. albopictus; assay: Quantification (depletion) of Wolbachia by qPCR, 16S rDNA/actin B ratio; type: cell-based, Wolbachia strain B of Aedes albopictus; conditions: 4 µg/mL, 9 days, C6/36 cells, positive control
# Method: (a) A. albopictus C6/36 cells infected with Wolbachia strain B of A. albopictus were cultured for 9 days with or without the compounds at varying concentrations. […] (c) The depletion of Wolbachia from infected and treated C6/36 cells was measured after 9 days by extracting genomic DNA and measuring the ratio of Wolbachia 16S rDNA and A. albopictus actin B by qPCR; the median ± interquartile range from three experiments is shown.
# Susceptibility of Wolbachia toward different compounds was tested as described [32, 53]. In short, 1 × 10^4 cells/well of A. albopictus C6/36 infected with Wolbachia were cultured in supplemented medium in 96-well plates with or without compound at 26 °C for 9 days. The medium, with and without compound, was exchanged every third day, and the cells were harvested on day 9 for the extraction of genomic DNA using the QIAamp Kit (Qiagen, Hilden, Germany) according to the manufacturer’s protocol. Wolbachia were quantified by qPCR of the 16S rDNA gene of Wolbachia (GenBank accession No. X61767) and the actin B gene of A. albopictus (GenBank accession no. DQ657949) as described [32, 91]. A plasmid containing the appropriate insert was used to generate a standard curve to determine the copy number of the genes. The abundance of Wolbachia was normalized by calculating the ratio of 16S rDNA copies/µL to actin B copies/µL.
# C. trachomatis D/UW-3/CX [3] = assay: Effect of MRY D2 on active (mid-stage) and penicillin G-induced persistent C. trachomatis infections, inclusion counts; type: cell-based; conditions: read at 30 hpi
# Method: Figure 6 Effect of MRY D2 on PEN G-induced persistent C. trachomatis infections. (a) HEp-2 cells infected with C. trachomatis D/UW-3/CX were treated with 128 µg/mL MRY D2 at 2 hpi or 12 hpi to analyze the effect on active infection. Additionally, 128 µg/mL MRY D2 and 100 U/mL PEN G were added simultaneously at 2 hpi. To assess the effect on a PEN G-induced persistent infection, 100 U/mL PEN G was added at 2 hpi, and 128 µg/mL MRY D2 was added at 12 hpi. Anti-chlamydial activity was analyzed at 30 hpi by fluorescence microscopy. (b) Eukaryotic host cell cytoplasm from representative images was labelled with Evans Blue (red), genomic DNA with DAPI (blue), and chlamydial lipopolysaccharide with fluorescein (green). Scale bar: 10 µm. (c) Mean ± SD of inclusions/field and (d) the relative number of inclusions filled with either elementary bodies (EBs)/reticulate bodies (RBs), ABs, or a mixed phenotype, analyzed from three images. An unpaired, two-tailed Student’s t-test was performed against the respective vehicle control. ns: not significant, p > 0.05; *: p = 0.05 to 0.01; **: p = 0.01 to 0.001; ****: p < 0.0001. In comparison with the DMSO vehicle control, the addition of PEN G at 2 hpi induced persistence, characterized by aberrant bodies. Early application of MRY D2 at 2 hpi (p < 0.0001) and simultaneous application with PEN G at 2 hpi induced the formation of ABs. […] This was also visible if persistence was induced by PEN G at 2 hpi followed by MRY D2 addition at 12 hpi (p = 0.0037).
# as §1
# The effect of MRY D2 on penicillin-induced persistent C. trachomatis infections was analyzed as described for the active infection, with the following modifications. After removal of the EB-containing lysate at 2 hpi and washing of the cells, 100 U/mL PEN G was added to induce a persistent infection. MRY D2 was added at 12 hpi in a concentration range of 128 µg/mL to 1 µg/mL by serial dilution. In another approach, MRY D2 was applied simultaneously with PEN G at 2 hpi to determine if early administration influences the establishment of a persistent infection.
# as §2, with “Genomic DNA was stained with 10 µg/mL DAPI (Thermo Fisher Scientific) for 1 min and then washed twice with PBS for 10 min at 4 °C.” left out
# Inclusions were quantified using CellProfiler 4.0.6. […]
# HEp-2 cells [4] = assay: Cytotoxicity toward HEp-2 cells, resazurin-based alamarBlue viability assay; conditions: 28 h incubation, normalized to DMSO, non-linear regression from mean of two independent experiments, highest concentration tested 128 µg/mL
# Method: (§3) Cytotoxicity of the compounds toward HEp-2 cells was assessed using the resazurin-based alamarBlue cell viability reagent (Thermo Fisher Scientific, Waltham, MA, USA). 5 × 10^4 HEp-2 cells/mL were seeded into flat base TC-96-well plates (Sarstedt, Nümbrecht, Germany) and incubated at 37 °C and 5% (v/v) CO2. After 48 h, the cells were washed with medium, followed by the addition of compounds in a serial dilution ranging from 128 µg/mL to 1 µg/mL for another 28 h. Next, the cells were washed twice with Hank’s balanced salt solution (HBSS) and incubated with the alamarBlue cell viability reagent diluted 1:10 in HBSS for 1 h. The conversion of resazurin into resorufin by viable cells was determined by transferring the supernatant into black 96-well plates (Greiner Bio-One, Frickenhausen, Germany) and measuring the fluorescence at 550 nm excitation and 595 nm emission wavelengths using a Tecan infinite M200 plate reader and Tecan SparkControl software v3.2 (Tecan Group, Männedorf, Switzerland). HEp-2 cell viability was normalized to the vehicle control, and the cytotoxic concentration 50% (CC50) was calculated by non-linear regression using GraphPad Prism v10.1.2 (GraphPad Software, San Diego, CA, USA).
# C. pneumoniae MraY = assay: Inhibition of C. pneumoniae MraY in vitro (lipid I formation, TLC); type: biochemical; conditions: 0.5 µM compound (range tested 0.05-0.5 µM), 2 µg MraYCpn, C55-P, UDP-MurNAc-pentapeptide, 90 min, duplicate
# Source text: (a) C. pneumoniae and Wolbachia spp. MraY use the precursor molecules undecaprenyl-phosphate (C55-P) and uridine diphosphate (UDP)-N-acetylmuramoyl(MurNAc)-pentapeptide to form lipid I, which is glycosylated with N-acetylglucosamine (GlcNAc) by MurG, yielding lipid II. IM: inner membrane; UMP: uridine monophosphate; mDAP: meso-diaminopimelic acid; C55-P: undecaprenyl-phosphate. […] Reaction products were extracted, separated via thin-layer chromatography, and stained. Formation of lipid I by MraYCpn was inhibited by both tested inhibitors.
# C. pneumoniae MraY was heterologously overexpressed in E. coli, purified via His-tag affinity chromatography, and inhibition of the enzymatic activity was analyzed by visualizing the reaction products via thin-layer chromatography.
# Inhibition assays with MraYCpn and the compounds were performed based on the activity assays for MraYCpn as previously described, with minor modifications, in a final volume of 50 µL. First, 2.5 nmol C55-P (Larodan, Solna, Sweden) was dissolved in 0.43% (v/v) Triton X-100 by vortexing for 1 min. Then, 75 mM Tris-HCl (pH 7.5), 6 mM MgCl2, 10% (v/v) DMSO, and UDP-MurNAc-pentapeptide obtained from Bacillus cereus DSM2302 (based on) were added. Compounds were applied at the indicated concentrations and incubated with 2 µg MraYCpn at 30 °C for 90 min. […]
# HEp-2 cells [5] = tested on: HEp-2 cells
# Method: as §3
# [6] = 128 µg/mL MRY D2 alone added at 12 hpi
compound,measurement,setting,value
"CC[C@H]1OC(=O)[C@H](C)[C@@H](O[C@H]2C[C@@](C)(OC)[C@@H](O)[C@H](C)O2)[C@H](C)[C@@H](O[C@@H]2O[C@H](C)C[C@H](N(C)C)[C@H]2O)[C@](C)(O)C[C@@H](C)CN(C)[C@H](C)[C@@H](O)[C@]1(C)O [AZI, azithromycin]",MIC,C. trachomatis serovar D,< 1 µg/mL
"O=C(O)c1cn(C2CC2)c2cc(N3CCNCC3)c(F)cc2c1=O [CIP, ciprofloxacin, reference compound]",Effect on C. trachomatis infection (phenotype),C. trachomatis D/UW-3/CX [1]; 0.5 µg/mL,bactericidal
"C[C@H]1c2cccc(O)c2C(=O)C2=C(O)[C@]3(O)C(=O)C(C(N)=O)=C(O)[C@@H](N(C)C)[C@@H]3[C@@H](O)[C@@H]21 [DOX, doxycycline]",Depletion of Wolbachia (16S rDNA/actin B by qPCR),[2],nearly completely depleted
same,MIC,C. trachomatis serovar D,< 1 µg/mL
"CC(C)C[C@H](NC(=O)[C@@H](NC(=O)N[C@H](C(=O)O)C(C)C)[C@@H]1CCN=C(N)N1)C(=O)NCCCN[C@H](C(=O)O)[C@H](O[C@@H]1O[C@H](CN)[C@@H](O)[C@H]1O)[C@H]1O[C@@H](n2ccc(=O)[nH]c2=O)[C@H](O)[C@@H]1O [MRY D2, Muraymycin D2]",MIC,C. trachomatis D/UW-3/CX [1],128 µg/mL
same,Relative number of inclusions containing EBs/RBs,C. trachomatis D/UW-3/CX [3]; [6],83%
same,Relative number of inclusions containing a mixed phenotype (EBs/RBs/ABs),C. trachomatis D/UW-3/CX [3]; [6],8%
same,Phenotype on simultaneous treatment with PEN G,C. trachomatis D/UW-3/CX [3]; 128 µg/mL MRY D2 and 100 U/mL PEN G added simultaneously at 2 hpi,inclusions filled with ABs were visible as for PEN G alone
same,Fewer inclusions (reduction in inclusion number),C. trachomatis D/UW-3/CX [3]; active infection: 128 µg/mL MRY D2 alone added at 12 hpi,75%
same,Reduction of the inclusion quantity,"C. trachomatis D/UW-3/CX [3]; established persistent infection: 100 U/mL PEN G at 2 hpi, then 128 µg/mL MRY D2 at 12 hpi, vs PEN G only",70%
same,CC50,HEp-2 cells [4],> 128 µg/mL
same,Inhibition of lipid I formation by recombinant MraYCpn,C. pneumoniae MraY,completely abolished enzymatic activity
"CC1(C)S[C@@H]2[C@H](NC(=O)Cc3ccccc3)C(=O)N2[C@H]1C(=O)O [PEN, penicillin, reference compound]",Effect on C. trachomatis infection (phenotype),C. trachomatis D/UW-3/CX [1]; 100 U/mL,"induced persistence visible as enlarged, aberrant bodies"
"CCCCCCCCCCCCCCCCC[C@H]1CN(C)[C@@H]([C@H](O[C@@H]2O[C@H](CN)[C@@H](O)[C@H]2O)[C@H]2O[C@@H](n3ccc(=O)[nH]c3=O)[C@H](O)[C@@H]2O)C(=O)N(C)[C@@H]1C(=O)O [cCPZ, carbacaprazamycin]",MIC,C. trachomatis D/UW-3/CX [1],16 µg/mL
same,CC50,HEp-2 cells [5],124 µg/mL

# — paper PMC11117252, “The MraY Inhibitor Muraymycin D2 and Its Derivatives Induce Enlarged Cells in Obligate Intracellular Chlamydia and Wolbachia and Break the Persistence Phenotype in Chlamydia” (Antibiotics, 2024)
